# pIC50: −log10 of the molar value. Where two headings read alike, the source gives them in different places.
# Target: canine TRPM8 (Canis lupus familiaris, UniProt Q1A7N1)
# Assay: In Vitro Canine TRPM8 Functional Assay (Ca2+ fluorescence, icilin activation)
# Type: cell-based
# Settings: for pIC50: HEK293 cells stably expressing canine TRPM8, icilin activation, eight-point dose-response, read-out: IC50; for inhibition at 0.2 µM: compound at 0.2 μM, read-out: % Inh @ 0.2
# Outline: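 Eight-point dose-response curves, each point averaging quadruplicate wells, gave EC50 or IC50. Canine TRPM8-expressing HEK293 cells, dye-loaded (Calcium 3), were pre-exposed 5 min to compound, then challenged with icilin at roughly EC80; intracellular Ca2+ read by FLIPR or FDSS fluorescence.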
# [1] = compound at 0.5 μM, canine TRPM8, icilin activation, read-out: % Inh @ 0.5
# [2] = canine TRPM8, icilin activation
# Sequence of canine TRPM8 (Q1A7N1 1-1104): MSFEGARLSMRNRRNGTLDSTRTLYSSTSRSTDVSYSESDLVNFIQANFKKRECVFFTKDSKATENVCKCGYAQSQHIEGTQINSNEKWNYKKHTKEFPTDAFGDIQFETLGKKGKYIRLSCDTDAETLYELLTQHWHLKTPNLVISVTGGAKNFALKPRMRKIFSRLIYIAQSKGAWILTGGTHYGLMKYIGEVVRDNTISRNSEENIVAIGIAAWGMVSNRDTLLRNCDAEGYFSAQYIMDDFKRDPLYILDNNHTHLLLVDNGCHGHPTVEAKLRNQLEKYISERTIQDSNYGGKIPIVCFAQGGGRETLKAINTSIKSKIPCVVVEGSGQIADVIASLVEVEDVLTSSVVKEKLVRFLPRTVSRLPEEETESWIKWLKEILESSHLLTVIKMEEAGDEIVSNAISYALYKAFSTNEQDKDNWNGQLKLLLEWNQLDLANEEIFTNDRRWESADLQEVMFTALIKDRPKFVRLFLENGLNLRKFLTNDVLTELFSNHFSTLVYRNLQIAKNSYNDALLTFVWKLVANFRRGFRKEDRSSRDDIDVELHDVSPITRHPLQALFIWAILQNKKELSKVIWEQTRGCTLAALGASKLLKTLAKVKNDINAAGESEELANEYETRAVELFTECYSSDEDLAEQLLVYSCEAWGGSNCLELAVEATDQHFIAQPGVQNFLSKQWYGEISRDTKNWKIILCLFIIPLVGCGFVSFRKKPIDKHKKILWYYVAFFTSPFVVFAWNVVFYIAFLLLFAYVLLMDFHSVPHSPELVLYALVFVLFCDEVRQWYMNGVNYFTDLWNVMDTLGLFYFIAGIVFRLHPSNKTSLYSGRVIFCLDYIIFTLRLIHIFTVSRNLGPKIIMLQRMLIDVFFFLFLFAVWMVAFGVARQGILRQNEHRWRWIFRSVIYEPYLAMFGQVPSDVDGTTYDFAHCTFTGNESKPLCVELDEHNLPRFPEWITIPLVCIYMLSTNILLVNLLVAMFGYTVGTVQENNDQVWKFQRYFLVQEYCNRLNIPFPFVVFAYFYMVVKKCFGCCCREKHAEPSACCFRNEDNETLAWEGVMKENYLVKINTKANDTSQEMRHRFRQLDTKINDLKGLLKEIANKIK
Compound,pIC50,inhibition at 0.5 µM [1],inhibition at 0.2 µM [2],inhibition at 0.5 µM (read-out: % Inh @ 0.5 (μM))
"O=S(=O)(c1ccsc1)N(Cc1ccc(F)c(C(F)(F)F)c1)c1sc2ccccc2c1Cl [Compound 187, N-(3-Chloro-benzo[b]thiophen-2-yl)-N-(4-fluoro-3-trifluoromethyl-benzyl)-thien-3-yl-sulfonamide]",8.22,,100%,
"CCS(=O)(=O)N(Cc1ccc(F)c(C(F)(F)F)c1)c1sc2ccccc2c1Cl [Compound 190, N-(3-Chloro-benzo[b]thiophen-2-yl)-N-(4-fluoro-3-trifluoromethyl-benzyl)-ethanesulfonamide]",7.82,,101%,
"COC(=O)c1ccc(S(=O)(=O)N(Cc2ccc(F)c(C(F)(F)F)c2)c2sc3ccccc3c2Cl)cc1 [Compound 194, N-(3-Chloro-benzo[b]thiophen-2-yl)-N-(4-fluoro-3-trifluoromethyl-benzyl)-4-carbomethoxy-benzenesulfonamide]",,,45%,
"COC(=O)c1ccccc1S(=O)(=O)N(Cc1ccc(F)c(C(F)(F)F)c1)c1sc2ccccc2c1Cl [Compound 196, N-(3-Chloro-benzo[b]thiophen-2-yl)-N-(4-fluoro-3-trifluoromethyl-benzyl)-2-carbomethoxy-benzenesulfonamide]",8.10,,99%,
"CCS(=O)(=O)N(Cc1ccc(F)c(C(F)(F)F)c1)c1sc2ccccc2c1C#N [Compound 198, N-(3-Cyano-benzo[b]thiophen-2-yl)-N-(4-fluoro-3-trifluoromethyl-benzyl)-ethanesulfonamide]",8.00,,95%,
"CCS(=O)(=O)N(Cc1ccc(F)c(C(F)(F)F)c1)c1sc2ccccc2c1-c1cncnc1 [Compound 199, N-(4-Fluoro-3-trifluoromethyl-benzyl)-N-(3-pyrimidin-5-yl-benzo[b]thiophen-2-yl)-ethanesulfonamide]",7.89,,91%,
"CCS(=O)(=O)N(Cc1ccc(F)c(C(F)(F)F)c1)c1sc2ccccc2c1-c1ccccc1F [Compound 200, N-[3-(2-Fluoro-phenyl)-benzo[b]thiophen-2-yl]-N-(4-fluoro-3-trifluoromethyl-benzyl)-ethanesulfonamide]",,,29%,
"CCS(=O)(=O)N(Cc1ccc(F)c(C(F)(F)F)c1)c1sc2ccccc2c1-c1ccc(F)cc1 [Compound 201, N-[3-(4-Fluoro-phenyl)-benzo[b]thiophen-2-yl]-N-(4-fluoro-3-trifluoromethyl-benzyl)-ethanesulfonamide]",,,14%,
"CCS(=O)(=O)N(Cc1ccc(F)c(C(F)(F)F)c1)c1sc2ccccc2c1-c1ccsc1 [Compound 202, N-(4-Fluoro-3-trifluoromethyl-benzyl)-N-(3-thiophen-3-yl-benzo[b]thiophen-2-yl)-ethanesulfonamide]",,,32%,
CCS(=O)(=O)N(Cc1ccc(F)c(F)c1)c1sc2ccccc2c1C(C)=O [Compound 203],,,,93%
"CC(=O)c1c(N(Cc2ccc(F)c(F)c2)S(=O)(=O)c2ccccc2)sc2ccccc12 [Compound 204, N-(3-Acetyl-benzo[b]thiophen-2-yl)-N-(3,4-difluoro-benzyl)-benzenesulfonamide]",8.22,96%,,
"CCS(=O)(=O)N(Cc1ccc(F)c(C(F)(F)F)c1)c1sc2ccccc2c1C(C)=O [Compound 205, N-(3-Acetyl-benzo[b]thiophen-2-yl)-N-(4-fluoro-3-trifluoromethyl-benzyl)-ethanesulfonamide]",8.52,96%,,
"O=Cc1c(N(Cc2ccc(F)c(F)c2)S(=O)(=O)c2ccccc2)sc2ccccc12 [Compound 206, N-(3,4-Difluoro-benzyl)-N-(3-formyl-benzo[b]thiophen-2-yl)-benzenesulfonamide]",7.89,,98%,
"CS(=O)(=O)N(Cc1ccc(F)c(C(F)(F)F)c1)c1sc2ccccc2c1C=O [Compound 208, N-(4-Fluoro-3-trifluoromethyl-benzyl)-N-(3-formyl-benzo[b]thiophen-2-yl)-methanesulfonamide]",7.92,,96%,
"CS(=O)(=O)N(Cc1ccc(F)c(F)c1)c1sc2ccccc2c1C=O [Compound 209, N-(3,4-Difluoro-benzyl)-N-(3-formyl-benzo[b]thiophen-2-yl)-methanesulfonamide]",7.49,,98%,
"CCS(=O)(=O)N(Cc1ccc(F)c(C(F)(F)F)c1)c1sc2ccccc2c1C=O [Compound 210, N-(4-Fluoro-3-trifluoromethyl-benzyl)-N-(3-formyl-benzo[b]thiophen-2-yl)-ethanesulfonamide]",8.10,,91%,
"COC(=O)c1ccc(S(=O)(=O)N(Cc2ccc(F)c(C(F)(F)F)c2)c2sc3ccccc3c2C=O)cc1 [Compound 211, N-(3-Formyl-benzo[b]thiophen-2-yl)-N-(4-fluoro-3-trifluoromethyl-benzyl)-4-carbomethoxy-benzenesulfonamide]",7.52,,80%,
"CCS(=O)(=O)N(Cc1ccc(F)c(F)c1)c1sc2ccccc2c1C=O [Compound 212, N-(3,4-Difluoro-benzyl)-N-(3-formyl-benzo[b]thiophen-2-yl)-ethanesulfonamide]",7.94,,101%,
"O=S(=O)(c1ccccc1)N(Cc1ccc(F)c(F)c1)c1sc2ccccc2c1CO [Compound 213, N-(3,4-Difluoro-benzyl)-N-(3-hydroxymethyl-benzo[b]thiophen-2-yl)-benzenesulfonamide]",8.85,,95%,

# Second part, led by results:
pIC50,inhibition at 0.5 µM [1],inhibition at 0.2 µM [2],Compound,inhibition at 0.5 µM (read-out: % Inh @ 0.5 (μM))
8.00,99%,,"COc1ccc(S(=O)(=O)N(Cc2ccc(F)c(C(F)(F)F)c2)c2sc3ccccc3c2Br)cc1 [Compound 182, N-(3-Bromo-benzo[b]thiophen-2-yl)-N-(4-fluoro-3-trifluoromethyl-benzyl)-4-methoxy-benzenesulfonamide]",
7.85,99%,,"CCS(=O)(=O)N(Cc1ccc(F)c(C(F)(F)F)c1)c1sc2ccccc2c1Br [Compound 183, N-(3-Bromo-benzo[b]thiophen-2-yl)-N-(4-fluoro-3-trifluoromethyl-benzyl)-ethanesulfonamide]",
8.41,97%,,"O=S(=O)(c1cccs1)N(Cc1ccc(F)c(C(F)(F)F)c1)c1sc2ccccc2c1Br [Compound 184, N-(3-Bromo-benzo[b]thiophen-2-yl)-N-(4-fluoro-3-trifluoromethyl-benzyl)-thiophene-2-sulfonamide]",
8.19,,102%,"COc1cccc(S(=O)(=O)N(Cc2ccc(F)c(C(F)(F)F)c2)c2sc3ccccc3c2Br)c1 [Compound 185, N-(3-Bromo-benzo[b]thiophen-2-yl)-N-(4-fluoro-3-trifluoromethyl-benzyl)-3-methoxy-benzenesulfonamide]",
8.43,,103%,"O=S(=O)(c1ccsc1)N(Cc1ccc(F)c(C(F)(F)F)c1)c1sc2ccccc2c1Br [Compound 186, N-(3-Bromo-benzo[b]thiophen-2-yl)-N-(4-fluoro-3-trifluoromethyl-benzyl)-thien-3-yl-sulfonamide]",
7.94,,100%,"O=S(=O)(c1cccnc1)N(Cc1ccc(F)c(C(F)(F)F)c1)c1sc2ccccc2c1Cl [Compound 189, N-(3-Chloro-benzo[b]thiophen-2-yl)-N-(4-fluoro-3-trifluoromethyl-benzyl)-pyridin-3-yl-sulfonamide]",
,,105%,"O=S(=O)(c1cccs1)N(Cc1ccc(F)c(C(F)(F)F)c1)c1sc2ccccc2c1Cl [Compound 191, N-(3-Chloro-benzo[b]thiophen-2-yl)-N-(4-fluoro-3-trifluoromethyl-benzyl)-thiophene-2-sulfonamide]",
7.22,,82%,"COC(=O)c1ccc(S(=O)(=O)N(Cc2ccc(F)c(C(F)(F)F)c2)c2sc3ccccc3c2Br)cc1 [Compound 192, N-(3-Bromo-benzo[b]thiophen-2-yl)-N-(4-fluoro-3-trifluoromethyl-benzyl)-4-carbomethoxy-benzenesulfonamide]",
7.84,,101%,"COC(=O)c1cccc(S(=O)(=O)N(Cc2ccc(F)c(C(F)(F)F)c2)c2sc3ccccc3c2Br)c1 [Compound 193, N-(3-Bromo-benzo[b]thiophen-2-yl)-N-(4-fluoro-3-trifluoromethyl-benzyl)-3-carbomethoxy-benzenesulfonamide]",
7.33,,88%,"COC(=O)c1cccc(S(=O)(=O)N(Cc2ccc(F)c(C(F)(F)F)c2)c2sc3ccccc3c2Cl)c1 [Compound 195, N-(3-Chloro-benzo[b]thiophen-2-yl)-N-(4-fluoro-3-trifluoromethyl-benzyl)-3-carbomethoxy-benzenesulfonamide]",
8.15,,99%,"COC(=O)c1ccccc1S(=O)(=O)N(Cc1ccc(F)c(C(F)(F)F)c1)c1sc2ccccc2c1Br [Compound 197, N-(3-Bromo-benzo[b]thiophen-2-yl)-N-(4-fluoro-3-trifluoromethyl-benzyl)-2-carbomethoxy-benzenesulfonamide]",
7.80,,98%,"O=Cc1c(N(Cc2ccc(F)c(C(F)(F)F)c2)S(=O)(=O)c2ccccc2)sc2ccccc12 [Compound 207, N-(4-Fluoro-3-trifluoromethyl-benzyl)-N-(3-formyl-benzo[b]thiophen-2-yl)-benzenesulfonamide]",
8.68,,97%,"O=S(=O)(c1ccccc1)N(Cc1ccc(F)c(C(F)(F)F)c1)c1sc2ccccc2c1CO [Compound 214, N-(4-Fluoro-3-trifluoromethyl-benzyl)-N-(3-hydroxymethyl-benzo[b]thiophen-2-yl)-benzenesulfonamide]",

# Reference: patent US9434711B2 (Janssen Pharmaceutica, NV, priority 2007, dated 2016)
